Assay results taken from patent publication US7399869B2, “Fibroblast activation protein inhibitor compounds and methods” (Genentech, Inc., priority 2005, dated 2008).

Legend:
Type in all cases: biochemical
POP = target: T1, POP (Homo sapiens, UniProt P48147); assay: Inhibition of POP by N-blocked boroPro compounds
T1 construct: 2-710 of POP; FLAG (N); made in house; host or cells: 293 cells; template plasmid from Origene
T1 sequence (P48147 2-710): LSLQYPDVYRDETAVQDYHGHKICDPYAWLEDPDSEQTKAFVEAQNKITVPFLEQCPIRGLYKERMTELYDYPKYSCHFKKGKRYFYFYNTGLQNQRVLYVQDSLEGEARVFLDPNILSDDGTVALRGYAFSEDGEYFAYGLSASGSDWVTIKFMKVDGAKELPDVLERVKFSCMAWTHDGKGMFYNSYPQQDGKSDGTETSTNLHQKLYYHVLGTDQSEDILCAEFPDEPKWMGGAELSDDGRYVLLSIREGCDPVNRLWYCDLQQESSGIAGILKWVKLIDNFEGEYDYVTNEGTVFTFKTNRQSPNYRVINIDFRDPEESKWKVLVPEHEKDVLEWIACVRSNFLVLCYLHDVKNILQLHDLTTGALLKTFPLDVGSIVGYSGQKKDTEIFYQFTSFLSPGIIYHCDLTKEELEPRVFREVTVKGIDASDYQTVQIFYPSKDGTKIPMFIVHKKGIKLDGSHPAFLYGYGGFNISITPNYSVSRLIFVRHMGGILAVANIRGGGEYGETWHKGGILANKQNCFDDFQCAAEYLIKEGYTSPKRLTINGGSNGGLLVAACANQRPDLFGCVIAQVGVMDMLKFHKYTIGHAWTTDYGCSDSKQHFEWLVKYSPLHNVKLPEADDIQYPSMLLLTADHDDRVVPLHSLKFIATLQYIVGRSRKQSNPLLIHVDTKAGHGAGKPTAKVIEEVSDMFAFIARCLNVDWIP
Experimental: Briefly, proteases were added to a reaction mixture containing inhibitor and substrate (Ac-Ala-AMC for APH, Z-Gly-Pro-AMC for POP, and Ala-Pro-AFC for all others) in assay buffer at 23° C. Protease activity was followed continuously as described above to monitor time-dependent inhibition. Data were plotted as V0/Vi−1 versus [I], where V0 is the rate if substrate hydrolysis in the absence of inhibitor, Vi is the steady state rate of substrate hydrolysis in the presence of inhibitor and [I] is the concentration of Ac-Gly-BoroPro.
KI values for inhibition of proteases by 5 were determined using the method of progress curves. Briefly, proteases (10-100 nM) were added to a reaction mixture containing inhibitor 5 (0-10 μM) and substrate AP-AFC in assay buffer at 23° C. […] Data were plotted as V0/Vi−1 versus [I], where V0 is the rate if substrate hydrolysis in the absence of inhibitor, Vi is the steady state rate of substrate hydrolysis in the presence of inhibitor and [I] is the concentration of 5. […] Ki, the true equilibrium inhibition constant was determined according to the following relationship: Ki=Kobs/(1+[S]/Km), where [S] is the concentration of substrate used in the assay and Km is the Michaelis constant for substrate cleavage.
Plasmids encoding full-length proteases were obtained from Origene Technologies Inc., Rockville Md. […]

DPP-7 = target: T2, DPP-7 (Homo sapiens, UniProt Q9UHL4); assay: Relative cleavage of unblocked and N-blocked Gly-Pro-AFC by DPP-7; details: protease DPP-7; unblocked vs N-blocked substrate
T2 construct: These constructs encoded amino acids 26-492 of DPP-7; FLAG (N); made in house; host or cells: 293 cells; template plasmid from Origene
Experimental: (§1) The relative cleavage rates by FAP and several dipeptidases of N-blocked (8) and unblocked (7) Gly-Pro dipeptide substrates were measured.
(§2) Protease Assays—Protease activity was monitored continuously using a SpectraMax M2 microplate reader (Molecular Devices Corp., Sunnyvale Calif.) in the kinetic mode. Assays were conducted at 23° C. in 50 mM Tris (pH 7.4), 100 mM NaCl, 1 mM EDTA. The excitation/emission wavelengths for the different fluorogenic substrates were 360/460 nm (AMC), 400/505 nm (AFC), 340/425 nm (MNA), 340/510 nm (EDANS), and 337/425 nm (Abs). Standard curves of the appropriate fluorescent product versus concentration were used to convert relative fluorescence units to nmol of product produced. Substrates in the X-Pro-AMC library were used in rate assays at 5 μM final concentration. […] The kinetic parameters were calculated from Michaelis-Menten plots (V0 versus [S]) with nonlinear regression analysis using GraphPad software. kcat values were calculated under the assumption that each protease was 100% active.

DPP-8 = target: T3, DPP-8 (Homo sapiens, UniProt Q6V1X1); assay: Relative cleavage of unblocked and N-blocked Gly-Pro-AFC by DPP-8; details: protease DPP-8; unblocked vs N-blocked substrate
T3 construct: 2-883 of DPP-8; FLAG (N); made in house; host or cells: 293 cells; template plasmid from Origene
Experimental: as §1, §2

DPP-9 = target: T4, DPP-9 (Homo sapiens, UniProt Q86TI2); assay: Relative cleavage of unblocked and N-blocked Gly-Pro-AFC by DPP-9; details: protease DPP-9; unblocked vs N-blocked substrate
T4 construct: 2-864 of DPP-9; FLAG (N); made in house; host or cells: 293 cells; template plasmid from Origene
Experimental: as §1, §2

APH = target: T5, APH (Homo sapiens, UniProt P13798); assay: Relative cleavage of unblocked and N-blocked Gly-Pro-AFC by APH; details: protease APH; unblocked vs N-blocked substrate
T5 construct: 2-732 of APH; FLAG (N); made in house; host or cells: 293 cells; template plasmid from Origene
T5 sequence (P13798 2-732): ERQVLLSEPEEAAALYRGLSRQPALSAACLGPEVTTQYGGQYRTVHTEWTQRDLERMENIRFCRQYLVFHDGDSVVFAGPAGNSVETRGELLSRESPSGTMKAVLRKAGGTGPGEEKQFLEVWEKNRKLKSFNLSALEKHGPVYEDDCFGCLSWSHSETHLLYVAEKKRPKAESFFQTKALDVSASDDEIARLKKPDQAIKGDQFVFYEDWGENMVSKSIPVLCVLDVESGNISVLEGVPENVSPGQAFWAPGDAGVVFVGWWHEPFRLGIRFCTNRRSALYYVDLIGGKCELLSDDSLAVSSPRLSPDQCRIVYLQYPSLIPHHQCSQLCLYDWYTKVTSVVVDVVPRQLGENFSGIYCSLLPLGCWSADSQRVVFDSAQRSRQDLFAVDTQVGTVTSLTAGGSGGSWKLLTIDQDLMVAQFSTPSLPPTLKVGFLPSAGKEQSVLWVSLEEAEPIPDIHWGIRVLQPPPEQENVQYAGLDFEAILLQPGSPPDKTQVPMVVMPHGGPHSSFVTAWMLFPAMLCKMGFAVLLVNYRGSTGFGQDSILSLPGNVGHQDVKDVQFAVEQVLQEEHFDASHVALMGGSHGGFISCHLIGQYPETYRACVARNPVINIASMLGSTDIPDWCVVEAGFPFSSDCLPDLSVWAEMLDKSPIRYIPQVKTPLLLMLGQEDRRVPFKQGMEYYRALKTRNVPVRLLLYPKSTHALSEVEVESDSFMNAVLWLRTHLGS
Experimental: as §1, §2

FAP = target: T6, FAP (Homo sapiens, UniProt Q12884); assay: Hydrolysis of C-terminal coumarin dipeptide substrates by FAP (kinetic constants); parameters: FAP (amino acids 38-760); FLAG (N); made in house; host or cells: 293 cells (secreted, purified from serum-free conditioned media); details: protease FAP; unblocked vs N-blocked substrate
T6 sequence (Q12884 38-760): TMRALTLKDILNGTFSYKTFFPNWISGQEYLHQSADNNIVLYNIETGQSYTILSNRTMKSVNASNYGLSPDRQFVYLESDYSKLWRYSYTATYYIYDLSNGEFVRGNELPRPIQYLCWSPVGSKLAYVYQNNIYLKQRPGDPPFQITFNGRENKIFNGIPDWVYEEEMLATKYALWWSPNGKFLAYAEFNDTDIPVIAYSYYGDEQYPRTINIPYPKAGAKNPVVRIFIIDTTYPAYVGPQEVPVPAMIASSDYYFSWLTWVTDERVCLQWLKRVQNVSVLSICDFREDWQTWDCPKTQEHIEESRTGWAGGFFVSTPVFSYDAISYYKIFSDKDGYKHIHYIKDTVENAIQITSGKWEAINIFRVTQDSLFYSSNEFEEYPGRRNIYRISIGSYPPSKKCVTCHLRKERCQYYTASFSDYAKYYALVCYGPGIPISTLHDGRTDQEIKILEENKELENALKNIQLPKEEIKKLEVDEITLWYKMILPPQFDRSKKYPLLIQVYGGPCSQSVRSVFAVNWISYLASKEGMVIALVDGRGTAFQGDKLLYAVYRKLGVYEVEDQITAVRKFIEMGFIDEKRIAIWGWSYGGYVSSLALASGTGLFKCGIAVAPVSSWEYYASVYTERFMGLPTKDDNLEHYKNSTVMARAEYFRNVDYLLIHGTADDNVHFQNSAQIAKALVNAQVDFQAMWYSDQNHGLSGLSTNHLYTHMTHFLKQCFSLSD
Experimental: as §1
(§3) The cleavage (hydrolysis) rates of various C-terminal coumarin dipeptide substrates 7-16 by FAP and DPP-4 were measured (Tables 4 and 5). The amino-terminus of the substrates was unblocked and the amino acids were varied in Table 4. The amino-terminus of the substrates was blocked and the amino acids were varied in Table 5. To extend the results obtained with the dipeptide substrate library, kinetic parameters were determined for cleavage of the unblocked dipeptide substrates by FAP (Table 4). The catalytic efficiency (kcat/Km) for substrate cleavage was greatest with Ile-Pro-AFC, followed by Ala-Pro-, Gly-Pro- and Phe-Pro-AFC, consistent with the dipeptide substrate library results (FIG. 5). […] Kinetic constants for cleavage of Ala-Pro-AFC and Gly-Pro-AFC by DPP-4 were determined (Table 4). The catalytic efficiency for Ala-Pro-AFC hydrolysis was greater than that for Gly-Pro-AFC, and consistent with the dipeptide library.
as §2
(§4) When saturating amounts of substrate could not be achieved, catalytic efficiencies (kcat/Km) were determined under pseudo-first order conditions ([S]<<the estimated Km) and fit to the following equation: Ln[St/S0]=−kobst, where St is the concentration of substrate remaining at time t, S0 is the initial substrate concentration and kobs is the apparent first order substrate cleavage constant equal to (kcat/Km) times ET, the total enzyme concentration (Copeland, R. (2000) Enzymes, A Practical Introduction to Structure, Mechanism, and Data Analysis, 2nd Ed., John Wiley and Sons, Inc, New York). The linear relationship of Ln[St/S0] versus time allows calculation of kcat/Km by dividing the slope of the plot by ET.

DPP-4 = DPP-4 (Homo sapiens, UniProt P27487); assay: Hydrolysis of C-terminal coumarin dipeptide substrates by DPP-4 (kinetic constants); parameters: DPP-4 (amino acids 39-766); FLAG (N); made in house; host or cells: 293 cells (secreted, purified from serum-free conditioned media); details: protease DPP-4; unblocked vs N-blocked substrate
Experimental: as §1, §3, §2, §4

T4 sequence (Q86TI2 2-863 limits assumed): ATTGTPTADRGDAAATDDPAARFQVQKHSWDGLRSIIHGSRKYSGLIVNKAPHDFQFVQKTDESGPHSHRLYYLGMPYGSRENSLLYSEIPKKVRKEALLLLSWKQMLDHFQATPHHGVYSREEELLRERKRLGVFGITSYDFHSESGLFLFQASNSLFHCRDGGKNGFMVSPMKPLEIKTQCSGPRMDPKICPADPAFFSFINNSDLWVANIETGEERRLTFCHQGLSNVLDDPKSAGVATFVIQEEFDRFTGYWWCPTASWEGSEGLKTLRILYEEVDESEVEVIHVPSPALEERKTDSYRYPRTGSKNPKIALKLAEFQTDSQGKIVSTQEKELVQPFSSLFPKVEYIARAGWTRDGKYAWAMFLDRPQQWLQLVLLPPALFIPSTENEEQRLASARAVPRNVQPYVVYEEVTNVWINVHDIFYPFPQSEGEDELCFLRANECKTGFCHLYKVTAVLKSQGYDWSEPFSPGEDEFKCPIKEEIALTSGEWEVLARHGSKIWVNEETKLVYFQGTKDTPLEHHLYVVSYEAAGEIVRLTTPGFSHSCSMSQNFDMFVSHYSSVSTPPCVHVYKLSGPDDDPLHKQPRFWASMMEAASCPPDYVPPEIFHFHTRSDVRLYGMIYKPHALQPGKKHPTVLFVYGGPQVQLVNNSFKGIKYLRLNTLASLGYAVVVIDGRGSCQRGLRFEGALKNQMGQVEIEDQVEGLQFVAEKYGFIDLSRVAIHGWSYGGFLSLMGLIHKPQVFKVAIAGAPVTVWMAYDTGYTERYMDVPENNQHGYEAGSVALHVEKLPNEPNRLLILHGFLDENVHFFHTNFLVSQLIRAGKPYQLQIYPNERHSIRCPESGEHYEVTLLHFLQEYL
T3 sequence (Q6V1X1 18-898 limits assumed): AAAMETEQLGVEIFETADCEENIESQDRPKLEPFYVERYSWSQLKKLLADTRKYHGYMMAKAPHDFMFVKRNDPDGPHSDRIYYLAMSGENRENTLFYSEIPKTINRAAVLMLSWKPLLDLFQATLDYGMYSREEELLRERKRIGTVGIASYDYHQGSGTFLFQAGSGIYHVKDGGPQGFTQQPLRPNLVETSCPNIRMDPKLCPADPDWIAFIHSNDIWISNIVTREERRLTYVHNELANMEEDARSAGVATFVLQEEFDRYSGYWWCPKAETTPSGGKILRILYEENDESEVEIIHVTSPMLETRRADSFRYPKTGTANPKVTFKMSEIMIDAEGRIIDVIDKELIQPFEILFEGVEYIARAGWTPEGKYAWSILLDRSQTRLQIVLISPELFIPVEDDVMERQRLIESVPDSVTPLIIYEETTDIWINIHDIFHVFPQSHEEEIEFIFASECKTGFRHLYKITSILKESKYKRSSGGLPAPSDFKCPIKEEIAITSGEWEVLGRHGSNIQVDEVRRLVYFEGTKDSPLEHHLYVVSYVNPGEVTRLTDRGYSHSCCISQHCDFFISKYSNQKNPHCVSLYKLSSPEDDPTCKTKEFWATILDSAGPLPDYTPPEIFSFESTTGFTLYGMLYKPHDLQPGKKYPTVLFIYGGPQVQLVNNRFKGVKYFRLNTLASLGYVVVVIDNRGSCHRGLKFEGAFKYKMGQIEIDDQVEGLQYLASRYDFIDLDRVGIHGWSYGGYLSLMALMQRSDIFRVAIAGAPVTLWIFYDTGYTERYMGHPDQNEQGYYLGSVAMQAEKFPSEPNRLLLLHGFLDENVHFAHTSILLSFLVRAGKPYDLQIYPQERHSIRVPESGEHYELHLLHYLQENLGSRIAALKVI
DPP-4, sequence (P27487 39-766): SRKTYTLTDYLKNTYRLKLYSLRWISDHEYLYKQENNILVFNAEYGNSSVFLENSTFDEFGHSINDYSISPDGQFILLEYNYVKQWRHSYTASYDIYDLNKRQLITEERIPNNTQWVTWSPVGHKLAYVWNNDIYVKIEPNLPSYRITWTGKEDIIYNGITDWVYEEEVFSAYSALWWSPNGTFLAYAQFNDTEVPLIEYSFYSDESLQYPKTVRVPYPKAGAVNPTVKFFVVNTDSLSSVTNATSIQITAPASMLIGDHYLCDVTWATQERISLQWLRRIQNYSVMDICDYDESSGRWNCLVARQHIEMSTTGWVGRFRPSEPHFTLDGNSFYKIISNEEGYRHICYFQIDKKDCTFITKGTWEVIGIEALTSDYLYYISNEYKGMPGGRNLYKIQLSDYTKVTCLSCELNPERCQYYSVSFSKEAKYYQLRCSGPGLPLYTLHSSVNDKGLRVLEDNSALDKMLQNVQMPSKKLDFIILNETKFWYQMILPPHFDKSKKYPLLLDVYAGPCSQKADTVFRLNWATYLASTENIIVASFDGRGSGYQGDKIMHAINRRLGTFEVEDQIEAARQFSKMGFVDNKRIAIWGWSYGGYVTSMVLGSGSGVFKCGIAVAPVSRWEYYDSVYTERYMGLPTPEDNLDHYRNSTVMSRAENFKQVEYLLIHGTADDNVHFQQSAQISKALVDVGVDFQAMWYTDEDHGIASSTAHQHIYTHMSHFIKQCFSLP

Row | SMILES | Ki (POP) | Relative Activity Gly-Pro-AFC 7/Ac-Gly-Pro-AFC 8 (DPP-7) | Relative Activity Gly-Pro-AFC 7/Ac-Gly-Pro-AFC 8 (DPP-8) | Relative Activity Gly-Pro-AFC 7/Ac-Gly-Pro-AFC 8 (DPP-9) | Relative Activity Gly-Pro-AFC 7/Ac-Gly-Pro-AFC 8 (APH) | Relative Activity Gly-Pro-AFC 7/Ac-Gly-Pro-AFC 8 (FAP) | Relative Activity Gly-Pro-AFC 7/Ac-Gly-Pro-AFC 8 (DPP-4)
1 | CC(C)C(=O)N(C)CC(=O)N1CCCC1B(O)O (stereo not shown) [N-isobutyryl-sarcosyl-boroPro] | 63 nM |  |  |  |  |  | 
2 | NCC(=O)N1CCCC1C(=O)Nc1ccc2c(C(F)(F)F)c(CC(N)=O)c(=O)oc2c1 (stereo not drawn) [Gly-Pro-AFC 7, Gly-Pro-AFC] |  | 200 | 33 | 10,000 | no cleavage | 1.0 | 10,000
